According to patent US8865909B2, “Anti-biofilm agents” (Yissum Research Development Company of the Hebrew …, priority 2008, dated 2014):

What was measured:
[1] = system: Candida albicans (ATCC 90028); test: C. albicans biofilm formation, XTT metabolic reduction assay; assay type: cell-based
Protocol: Candida albicans (ATCC 90028) was used to study the anti-biofilm formation activity of exemplary ABF agents according to embodiments of the present invention.
The C. albicans strain was propagated in yeast peptone dextrose (YPD) medium (1% wt/vol yeast extract, 2% wt/vol peptone, 2% wt/vol dextrose). Batches of medium (30 ml in 125 ml Erlenmeyer flask) were inoculated with material from Sabouraud dextrose agar (SDA) plates containing freshly grown C. albicans and incubated overnight in an orbital shaker (200 rpm) at 30° C. under aerobic conditions. C. albicans grew in the budding-yeast phase under these conditions. Cells were harvested and washed twice in sterile phosphate-buffered saline (PBS) (Oxoid Ltd, Basingstoke, Hampshire, UK). Thereafter the cells were resuspended in RPMI 1640 supplemented with L-glutamine and buffered with morpholinepropanesulfonic acid (MOPS) (Sigma Chemical Co., St. Louis, Mo.) and adjusted to the desired density after counting with a hematocytometer.
Biofilms of C. albicans were formed in the wells on commercially available presterilized, polystyrene, flat-bottomed, 96-well microtiter plates (Nunc—Nunclon™ Surface, Roskilde, Denmark). Biofilms were formed by pipetting 100 μl of the standardized cell suspensions (5×10^6 cells/ml) into selected wells of the microtiter plate and incubating the plate for 72 hours at 37° C. After 24 hours and 48 hours of the biofilm formation, the medium was replaced by fresh RPMI 1640 medium.
Working concentrations of farnesol (300 μM; 66 μg/ml) and the exemplary ABF agents TZD10 and TZD11 (200 μg/ml) were prepared in RPMI 1640 by using the stock solutions. […]
The effect of the compounds on biofilm formation was measured by using a metabolic reduction assay (XTT kit). […] The colorimetric change (a reflection of the metabolic activity of the biofilm) was measured with a microtiter plate reader at 492 nm. The anti-biofilm formation activity effect of the tested agents was expressed as the percentage of the optical density (OD) of the treated wells compared to that of control (untreated) wells for the XTT assays. […]

[2] = system: Candida albicans (ATCC 90028) preformed biofilm; test: C. albicans preformed (mature) biofilm, XTT reduction assay; assay type: cell-based; conditions: for activity on the preformed biofilm: 24 hours on 48-hour biofilm
Protocol: The effect of the compounds on biofilm formation was measured by using a metabolic reduction assay (XTT kit). Briefly, 100 μl of the XTT reaction solution (Biological Industries, Israel Beit Haemek Ltd.) was added to each well, and microtiter plate was then incubated in the dark for 2 hours at 37° C. The colorimetric change (a reflection of the metabolic activity of the biofilm) was measured with a microtiter plate reader at 492 nm. The anti-biofilm formation activity effect of the tested agents was expressed as the percentage of the optical density (OD) of the treated wells compared to that of control (untreated) wells for the XTT assays. Light microscopic examination of biofilms formed in microtiter plates was performed in parallel by using an inverted microscope.
C. albicans biofilm was formed during 48 hours at 37° C. on the surfaces of microtiter plates by using the protocol described hereinabove, and the tested ABF agents were then added to the preformed biofilm. Following biofilm formation the spent medium and the nonadherent cells were removed by washing the biofilms three times in sterile PBS. The tested compounds, the ABF agent at 25, 50, 100 μg/ml, fluconazole at 31.25, 62.5, 125 μg/ml, in fresh RPMI 1640—farnesol at 150 μM (33 μg/ml), were added to selected wells of the microtiter plates. In addition, the effect of combination of farnesol (33 μg/ml) with fluconazole (31.25 μg/ml) and the ABF agent (25 or 50 μg/ml) with fluconazole (31.25 μg/ml) was examined on preformed biofilms. The plates were then incubated for 24 hours at 37° C. The effect of the compounds on pre-formed biofilms was then estimated by using the XTT reduction assay as described hereinabove.

Compound | reduction in the metabolic activity of the yeast cells (XTT) ([1]; 33 μg/ml, 72 hours) | additive effect of combination with fluconazole compared to farnesol alone ([1]; removed after 48 hours, fluconazole 31.25 μg/ml for another 24 hours) | activity on the preformed biofilm [2] | additive anti-biofilm effect of adding fluconazole ([2]; farnesol 33 μg/ml + fluconazole 31.25 μg/ml, pre-formed biofilm) | reduction in the metabolic activity (XTT), biofilm formation ([1]; 31-125 μg/ml, 72 hours)
CC(C)=CCC/C(C)=C/CC/C(C)=C/CO [farnesol] | 43% | did not show any additive effect | no activity | no additive anti-biofilm effect | 
OC(Cn1cncn1)(Cn1cncn1)c1ccc(F)cc1F [fluconazole] |  |  | no activity |  | up to 77%
